Experimental data published in patent US12497396B2, “Nitrogen-containing heterocyclic derivatives, method therefor and application therefor as inhibitors of KRAS G12C for the treatment of cancers” (SHANGHAI HANSOH BIOMEDICAL CO., LTD., priority 2019, dated 2025).
Like-named read-outs stand apart in the source and are kept apart here.

Tests used:
[1] = test system: human pancreatic cancer cell MiaPaca 2 xenograft; test: Tumor inhibition on MiaPaca 2 transplanted tumor (CDX) model; type: in vivo, BALB/c nude mice; conditions: for TGI (%) Day 21 / tumor volume (mm^3, Mean ± SD) Day 21 / ΔT/ΔC(%) Day 21: Day 21, 6 mg/kg QD×3 w oral; for tumor volume (mm^3, Mean ± SD) Day 0: baseline Day 0, 6 mg/kg QD×3 w oral
Procedure: MiaPaca 2 cells were removed from the cell bank, revived and added to DMEM medium (containing 10% FBS, 1% Glu, 1% P/S) and incubated in a CO2 incubator (incubator temperature was 37° C., CO2 concentration was 5%). After the cells were spread to 80-90% of the bottom of the culture flask, the cells were continued to be cultured in the CO2 incubator. The process was repeated until the number of cells met the in vivo pharmacological inoculation requirement, and the cells in logarithmic growth period were collected and counted with an automatic cell counter, resuspended with PBS and Matrigel (volume ratio 1:1) according to the count results, made into a cell suspension (the density was 8×10^7/mL), and placed in an ice box for use.
BALB/c nude mice, female, 6-8 weeks old, weighing about 18-22 g. The mice were kept in an environment free of special pathogens and in a single ventilated cage with 5 mice in each cage. All cages, bedding and water were sterilized before use, and all animals had free access to standard certified commercial laboratory diets. Nude mice were labeled with disposable universal ear tags for mice and rats before the start of the experiment, and the skin of the inoculation site was disinfected with 75% medical alcohol before inoculation, 0.1 mL (containing 8*10^6 cells) of MiaPaca 2 tumor cells were inoculated subcutaneously on the right back of each mouse. When the tumor volume reached 100-200 mm^3, the group administration was started. The tested compounds were administered daily by oral intragastric administration, dosage/frequency (6 mg/kg QD×3 w), and the efficacy of each group at the end of the experiment was shown in Table 29.
The tumor volume (mm^3) was measured with vernier caliper twice a week, the calculation formula was V=[…], wherein D and d were the long and short diameter of the tumor, respectively. The anti-tumor efficacy was determined by dividing the average tumor increased volume of the compound-treated animals by the average tumor increased volume of the untreated animals. The formula of tumor inhibition rate is: TGI (%)=1−[(Vt−V0) administration group/(Vt−V0) solvent control group]*100%. After the experiment, all animals were euthanized.

CYP1A2 = target: T1, CYP1A2 (Homo sapiens, UniProt P05177); test: CYP enzyme single point inhibition, human liver microsomes, 1A2; type: in vitro ADME; conditions: single point method
T1 construct: from tissue; host or cells: human liver microsomes
T1 sequence (P05177 1-516): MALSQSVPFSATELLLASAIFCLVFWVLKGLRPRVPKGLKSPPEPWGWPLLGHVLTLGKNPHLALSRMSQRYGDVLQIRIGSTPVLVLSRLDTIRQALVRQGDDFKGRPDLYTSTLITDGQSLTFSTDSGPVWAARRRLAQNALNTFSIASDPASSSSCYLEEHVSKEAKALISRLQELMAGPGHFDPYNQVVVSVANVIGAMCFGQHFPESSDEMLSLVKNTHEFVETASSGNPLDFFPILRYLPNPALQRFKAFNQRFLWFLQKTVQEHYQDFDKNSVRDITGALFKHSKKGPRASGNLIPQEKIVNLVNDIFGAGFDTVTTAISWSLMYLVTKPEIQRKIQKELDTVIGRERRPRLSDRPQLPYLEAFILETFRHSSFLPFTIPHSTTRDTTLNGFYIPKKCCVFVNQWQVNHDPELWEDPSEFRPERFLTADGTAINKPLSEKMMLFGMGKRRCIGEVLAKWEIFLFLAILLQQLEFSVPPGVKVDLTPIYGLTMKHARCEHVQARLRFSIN
Procedure: Using human liver microsomal incubation system, the inhibition of CYP450 enzyme subtypes by compounds was rapidly predicted by single point method. 2.5 mM NADPH: 100 mM phosphate buffer was added to 4.165 mg of NADPH (reduced nicotinamide adenine dinucleotide phosphate) to 2 mL. 0.25 mg/mL microsome: 4 mL of 100 mM phosphate buffer was added to 50 μL of 20 mg/mL microsome and mixed well. The embodiment compound to be tested was weighed and diluted to 10 mM with DMSO and then diluted to 100 μM with 100 mM phosphate buffer. • 1. In a 96-well plate, 40 μL of liver microsomes, 10 μL of substrate, 10 μL of compound to be tested were pre-incubated for 3 min. • 2. 40 μL of NADPH was added. • 3. 300 μL of acetonitrile termination solution containing internal standard was added at 20 min. • 4. Centrifugal injection.

CYP2D6 = target: T2, CYP2D6 (Homo sapiens, UniProt P10635); test: CYP enzyme single point inhibition, human liver microsomes, 2D6; type: in vitro ADME; conditions: single point method
T2 construct: from tissue; host or cells: human liver microsomes
Procedure: Using human liver microsomal incubation system, the inhibition of CYP450 enzyme subtypes by compounds was rapidly predicted by single point method.
2.5 mM NADPH: 100 mM phosphate buffer was added to 4.165 mg of NADPH (reduced nicotinamide adenine dinucleotide phosphate) to 2 mL. 0.25 mg/mL microsome: 4 mL of 100 mM phosphate buffer was added to 50 μL of 20 mg/mL microsome and mixed well.
The embodiment compound to be tested was weighed and diluted to 10 mM with DMSO and then diluted to 100 μM with 100 mM phosphate buffer.
• 1. In a 96-well plate, 40 μL of liver microsomes, 10 μL of substrate, 10 μL of compound to be tested were pre-incubated for 3 min. • 2. 40 μL of NADPH was added. • 3. 300 μL of acetonitrile termination solution containing internal standard was added at 20 min. • 4. Centrifugal injection.

[2] = Pharmacokinetics in MiaPaca 2 tumor-bearing mice (plasma, tumor); type: in vivo; conditions: female, mouse, po, 6 mg/kg p.o.
Procedure: The pharmacokinetic behavior of embodiment compound 165 and AMG-510 compound, administered orally at a dose of 6 mg/kg, in mice (plasma, tumor tissue and intestine) was studied using MiaPaca 2 tumor-bearing mice as test animals.
24 MiaPaca 2 tumor-bearing mice, females. 3 for each time point (0 h, 1 h, 2 h, 4 h, 6 h, 8 h, 16 h, 24 h). Shanghai xipuer-bikai Laboratory Animal Co., Ltd, Animal Production License No. (SCXK (Shanghai) 2018-0006.
Embodiment compound 165-1 and compound AMG-510 were weighed and dissolved in the solution, the mixture was shaken well, and ultrasound was performed for 15 minutes to obtain a uniform suspension with a concentration of 0.6 mg/mL.
MiaPaca 2 tumor-bearing mice were administered at a dose of 6 mg/kg in a volume of 10 mL/kg, respectively, based on body weight p.o. after fasting (animals were not administered at point 0 h).
Before and after administration, mice were sacrificed with CO2, 0.5 mL blood was collected from the heart and placed in EDTA-2K tube, centrifuged at 4° C. […] The duodenum, ileum and colon tissues were cut with scissors, the contents were removed and cleaned twice with PBS, after absorbing water with absorbent paper, they were weighed, placed in a 2 mL centrifuge tube and stored at −80° C.

T2 sequence (P10635 whole entry): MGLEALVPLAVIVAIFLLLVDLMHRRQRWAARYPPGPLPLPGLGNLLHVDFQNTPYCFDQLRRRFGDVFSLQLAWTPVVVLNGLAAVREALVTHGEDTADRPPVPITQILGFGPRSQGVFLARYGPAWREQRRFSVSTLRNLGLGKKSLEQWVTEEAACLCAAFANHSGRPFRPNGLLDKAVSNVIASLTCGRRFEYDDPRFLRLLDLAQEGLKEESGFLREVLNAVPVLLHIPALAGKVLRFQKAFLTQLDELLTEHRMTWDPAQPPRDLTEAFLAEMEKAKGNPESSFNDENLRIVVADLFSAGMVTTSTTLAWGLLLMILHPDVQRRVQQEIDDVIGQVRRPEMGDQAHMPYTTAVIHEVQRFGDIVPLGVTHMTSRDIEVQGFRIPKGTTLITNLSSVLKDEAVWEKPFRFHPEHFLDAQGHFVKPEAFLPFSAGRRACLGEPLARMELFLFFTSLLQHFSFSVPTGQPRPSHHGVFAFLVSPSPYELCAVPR

SMILES | TGI (%) Day 21 [1] [%] | tumor volume (mm^3, Mean ± SD) Day 21 [1] [mm^3] | ΔT/ΔC(%) Day 21 [1] [%] | tumor volume (mm^3, Mean ± SD) Day 0 [1] [mm^3] | IC50 (CYP1A2) [nM] | IC50 (CYP2D6) [nM] | Kp ([2]; exposure in tumor to exposure in plasma, read-out: Ratio (T/P)) | MRT ([2]; plasma, read-out: MRT (hr) Plasma) [h] | half-life ([2]; plasma, read-out: T1/2 (hr) Plasma (converted)) [h] | MRT ([2]; tumor, read-out: MRT (hr) Tumor) [h] | half-life ([2]; tumor, read-out: T1/2 (hr) Tumor (converted)) [h]
C=CC(=O)N1C[C@H](C)N(c2nc(=O)n(-c3c(SC)ccnc3C(C)C)c3nc(-c4c(N)ccc(Cl)c4F)c(Cl)cc23)C[C@H]1C (single isomer, unassigned) [Embodiment 165-1] | 176.76 | 41 ± 19 | −76.76 | 178 ± 34 | 66.7 | 21.2 | 0.57 | 0.9 | 0.5 | 1.5 | 0.9
C=CC(=O)N1C[C@H](C)N(c2nc(=O)n(-c3c(SC)ccnc3C(C)C)c3nc(-c4c(O)cccc4F)c(F)cc23)C[C@H]1C (single isomer, unassigned) [Embodiment 114-1] | 162.36 | 67 ± 34 | −62.36 | 177 ± 38 | > 100 | > 100 |  |  |  |  | 
